O=C(O)CCC(=O)C(=O)O
solubility (mole fraction)
Conditions | 278.15 K | 280.15 K | 282.15 K | 284.15 K | 286.15 K | 288.15 K | 293.15 K
in ethyl acetate | 0.0358 | 0.0374 | 0.0392 | 0.0418 | 0.0455 | 0.0494 | 0.0603
in n-butyl acetate | 0.0261 | 0.0284 | 0.0303 | 0.0337 | 0.0363 | 0.0391 | 0.0466
in water | 0.11 | 0.114 | 0.12 | 0.128 | 0.135 | 0.146 | 0.168

Source: BigSolDB 2.1
